From paper PMC3759959, “Design, Synthesis and Antiviral Activity Studies of Schizonepetin Derivatives” (International Journal of Molecular Sciences, 2013) come the findings set out here.

The test system of data set [1] is Vero cells. The experiment in a line: Cytotoxicity by CPE assay in Vero cells. Format: cell-based. The following applies: 72 h. The protocol: (§1) The cytotoxicity was evaluated by cytopathic effect (CPE) inhibition assay. Vero cells were seeded into 96-well plates. After cells had been incubated for 24 h at 37 °C in 5% CO2, they were exposed to drugs with two-fold serial dilutions. Untreated Vero cells were used as controls. All cultures were incubated again in 5% CO2 at 37 °C for 72 h. The cells were examined microscopically for the cytotoxicity effects. Then TC50 were calculated by the Reed-Muench method.

The test system of data set [2] is HSV-1 virus. As to the kind of experiment: Anti HSV-1 CPE inhibition assay in Vero cells. The following applies: for IC50: Human alphaherpesvirus 1, Vero, 72 h, read-out: IC50, antiviral activity against HSV-1 virus; for antiviral activity against HSV-1 (in words): in vitro, CPE inhibition.
The subject of data set [3] is influenza virus H3N2. As to the kind of experiment: Anti-H3N2 CPE inhibition assay in MDCK cells. The note with it: for IC50: Influenza A virus, H3N2, MDCK, read-out: IC50, antiviral activity against H3N2 virus; for antiviral activity against influenza virus H3N2 (in words): in vitro, CPE inhibition.
Data set [4] deals with MDCK cells. The experiment in a line: Cytotoxicity against MDCK cells by CPE assay. In kind it is cell-based. The method, then: as §1
The procedures for Anti-H3N2 studies and cytotoxicity against MDCK cells in vitro by CPE inhibition assay were similar to Anti HSV-1 studies and cytotoxicity against Vero cells.

The mark [5] stands for this setting: cytotoxicity, Vero cells, Reed-Muench method.

On to `Nc1nc2c(ncn2COCCO)c(=O)[nH]1` [Aciclovir, reference compound], for which, in data set [1] (African green monkey), the “TC50 (Antiviral activity against HSV-1 virus section)” value was over 666.0 µM. Besides, in data set [2], the IC50 (commonly the midpoint of a concentration-inhibition curve) was 4.9 µM and the “TI (TC50/IC50), HSV-1 virus” value was over 136.4.
Consider `CO[C@@]12C[C@H](C)CCC1=C(C)C(=O)O2` [M1, (6R,7aR)-7a-Methoxy-3,6-Dimethyl-5,6,7,7a-Tetrahydrobenzofuran-2(4H)-One], for which the “TC50 (Antiviral activity against HSV-1 virus section)” value in data set [1] (setting [5]) was 366.8 µM. Besides, the IC50 in data set [3] is over 39.1 µM; in data set [2], over 11.5 µM. Besides, the “TC50 (Antiviral activity against H3N2 virus section)” value in data set [4] was 298.5 µM.
Turning to `CCO[C@@]12C[C@H](C)CCC1=C(C)C(=O)O2` [M2, (6R,7aR)-7a-Ethoxy-3,6-Dimethyl-5,6,7,7a-Tetrahydrobenzofuran-2(4H)-One], the “TC50 (Antiviral activity against HSV-1 virus section)” value in data set [1] (setting [5]) was 246.7 µM. Also, the IC50 in data set [3] was over 39.1 µM. Also, in data set [2], the IC50 is 100 µM; the “TI (TC50/IC50), HSV-1 virus” value stood at 2.5; the “antiviral activity against HSV-1 (in words)” value was “obvious antiviral activity”. In addition, the “TC50 (Antiviral activity against H3N2 virus section)” value in data set [4] was 139.5 µM.
As to `CC(=O)O[C@@]12C[C@H](C)CCC1=C(C)C(=O)O2` [M4, (6R,7aR)-3,6-Dimethyl-2-oxo-2,4,5,6,7,7a-Hexahydrobenzofuran-7a-Yl Acetate], the “TC50 (Antiviral activity against HSV-1 virus section)” value in data set [1] (setting [5]) was found to be 374.6 µM. In data set [3], the IC50 was over 39.1 µM. Further, in data set [2], the IC50 was 93.8 µM; the “TI (TC50/IC50), HSV-1 virus” value was determined as 4.0; the “antiviral activity against HSV-1 (in words)” value is “obvious antiviral activity”. Further, in data set [4], the “TC50 (Antiviral activity against H3N2 virus section)” value stood at 319.2 µM.
Take `CCC(=O)O[C@@]12C[C@H](C)CCC1=C(C)C(=O)O2` [M5, (6R,7aR)-3,6-Dimethyl-2-oxo-2,4,5,6,7,7a-Hexahydrobenzofuran-7a-yl Propionate]: the “TC50 (Antiviral activity against HSV-1 virus section)” value in data set [1] (setting [5]) came to 66.0 µM. Further, the IC50 in data set [3] was over 39.1 µM. For the same compound, in data set [2], the IC50 stood at 26.9 µM; the “TI (TC50/IC50), HSV-1 virus” value came to 2.5; the “antiviral activity against HSV-1 (in words)” value is “obvious antiviral activity”. In addition, the “TC50 (Antiviral activity against H3N2 virus section)” value in data set [4] worked out at 39.1 µM.
Consider `CC1=C2CC[C@@H](C)C[C@]2(OC(=O)c2ccccc2)OC1=O` [M8, (6R,7aS)-3,6-Dimethyl-2-Oxo-2,4,5,6,7,7a-Hexahydrobenzofuran-7a-yl Benzoate], for which the “TC50 (Antiviral activity against HSV-1 virus section)” value in data set [1] (setting [5]) is 24.8 µM. Also, the IC50 in data set [3] is over 39.1 µM; in data set [2], over 11.5 µM. In addition, the “TC50 (Antiviral activity against H3N2 virus section)” value in data set [4] was found to be 54.2 µM.
The corresponding values for `CC1=C2CC[C@@H](C)C[C@]2(OC(=O)c2ccc([N+](=O)[O-])cc2)OC1=O` [M9, (6R,7aS)-3,6-Dimethyl-2-Oxo-2,4,5,6,7,7a-Hexahydrobenzofuran-7a-yl 4-Nitrobenzoate] are 216.0 µM, over 39.1 µM, over 11.5 µM and 216.0 µM.
Consider `CC1=C2CC[C@@H](C)C[C@]2(OC(=O)c2ccc(I)cc2)OC1=O` [M10, (6R,7aS)-3,6-Dimethyl-2-Oxo-2,4,5,6,7,7a-Hexahydrobenzofuran-7a-yl 4-Iodobenzoate], for which the “TC50 (Antiviral activity against HSV-1 virus section)” value in data set [1] (setting [5]) stood at 44.2 µM. Further, in data set [3], the IC50 is over 39.1 µM and the “antiviral activity against influenza virus H3N2 (in words)” value is “little effect”. In addition, the IC50 in data set [2] is over 11.5 µM. Also, in data set [4], the “TC50 (Antiviral activity against H3N2 virus section)” value is 41.3 µM.
In the same order, the values of `CC1=C2CC[C@@H](C)C[C@]2(OC(=O)c2ccc(Cl)cc2)OC1=O` [M11, (6R,7aS)-3,6-Dimethyl-2-Oxo-2,4,5,6,7,7a-Hexahydrobenzofuran-7a-yl 4-Chlorobenzoate] are 47.1 µM, over 39.1 µM, “little effect”, over 11.5 µM and 47.1 µM.
On to `CC1=C2CC[C@@H](C)C[C@@]2(OC(=O)c2cccnc2)OC1=O` [M21, (6R,7aS)-3,6-Dimethyl-2-Oxo-2,4,5,6,7,7a-Hexahydrobenzofuran-7a-yl Nicotinate], for which the “TC50 (Antiviral activity against HSV-1 virus section)” value in data set [1] (setting [5]) came to 439.0 µM. For the same compound, the values for the IC50 in data set [3] and in data set [2] were over 39.1 µM and over 11.5 µM, respectively. In data set [4], the “TC50 (Antiviral activity against H3N2 virus section)” value was determined as 180.5 µM.
Consider `CC1=C2CC[C@@H](C)C[C@]2(OC(=O)c2ccc(F)cc2)OC1=O` [M22, (6R,7aS)-3,6-Dimethyl-2-Oxo-2,4,5,6,7,7a-Hexahydrobenzofuran-7a-yl 4-Fluorobenzoate], for which the “TC50 (Antiviral activity against HSV-1 virus section)” value in data set [1] (setting [5]) is 87.8 µM. Also, in data set [3], the IC50 is over 39.1 µM and the “antiviral activity against influenza virus H3N2 (in words)” value is on record as “little effect”. Moreover, the IC50 in data set [2] was over 11.5 µM. The “TC50 (Antiviral activity against H3N2 virus section)” value in data set [4] came out at 60.5 µM.
Consider `CC1=C2CC[C@@H](C)C[C@]2(OC(=O)c2cccc(Cl)c2)OC1=O` [M25, (6R,7aS)-3,6-Dimethyl-2-Oxo-2,4,5,6,7,7a-Hexahydrobenzofuran-7a-yl 3-Chlorobenzoate], for which the “TC50 (Antiviral activity against HSV-1 virus section)” value in data set [1] (setting [5]) came to 11.5 µM. Further, the IC50 in data set [3] is over 39.1 µM; in data set [2], over 11.5 µM. The “antiviral activity against influenza virus H3N2 (in words)” value in data set [3] is on record as “little effect”. In addition, the “TC50 (Antiviral activity against H3N2 virus section)” value in data set [4] was 80.8 µM.
`CC1=C2CC[C@@H](C)C[C@@]2(OC(=O)c2cccs2)OC1=O` [M27, (6R,7aS)-3,6-Dimethyl-2-Oxo-2,4,5,6,7,7a-Hexahydrobenzofuran-7a-yl Thiophene-2-Carboxylate]: in data set [1] (setting [5]), the “TC50 (Antiviral activity against HSV-1 virus section)” value amounted to 100.3 µM. The concentration for half-maximal inhibition (IC50) is over 39.1 µM in data set [3] and over 11.5 µM in data set [2]. For the same compound, the “TC50 (Antiviral activity against H3N2 virus section)” value in data set [4] turned out to be 177.4 µM.
In the case of `CC1=C2CC[C@@H](C)C[C@]2(OC(=O)c2cccc(F)c2)OC1=O` [M28, (6R,7aS)-3,6-Dimethyl-2-Oxo-2,4,5,6,7,7a-Hexahydrobenzofuran-7a-yl 3-Fluorobenzoate], in data set [1] (setting [5]), the “TC50 (Antiviral activity against HSV-1 virus section)” value was determined as 170.4 µM. In addition, in data set [3], the IC50 is 34.5 µM; the “TI (TC50/IC50), H3N2 virus” value is listed as 2.8; the “antiviral activity against influenza virus H3N2 (in words)” value is given as “high antiviral activity”. In addition, the IC50 in data set [2] was over 11.5 µM. The “TC50 (Antiviral activity against H3N2 virus section)” value in data set [4] came out at 96.4 µM.
For the compound `CC1=C2CC[C@@H](C)C[C@]2(OC(=O)c2cccc(I)c2)OC1=O` [M29, (6R,7aS)-3,6-Dimethyl-2-oxo-2,4,5,6,7,7a-Hexahydrobenzofuran-7a-yl 3-Iodobenzoate], the “TC50 (Antiviral activity against HSV-1 virus section)” value in data set [1] (setting [5]) is 45.4 µM. Besides, the IC50 is over 39.1 µM in data set [3] and over 11.5 µM in data set [2]. Further, the “antiviral activity against influenza virus H3N2 (in words)” value in data set [3] is “little effect”. The “TC50 (Antiviral activity against H3N2 virus section)” value in data set [4] is 71.1 µM.
On to `CC1=C2CC[C@@H](C)C[C@]2(OC(=O)c2cccc(Br)c2)OC1=O` [M31, (6R,7aS)-3,6-Dimethyl-2-Oxo-2,4,5,6,7,7a-Hexahydrobenzofuran-7a-yl 3-Bromobenzoate], for which, in data set [1] (setting [5]), the “TC50 (Antiviral activity against HSV-1 virus section)” value was 80.3 µM. Further, in data set [3], the IC50 was over 39.1 µM and the “antiviral activity against influenza virus H3N2 (in words)” value is “little effect”. In data set [2], the concentration for half-maximal inhibition (IC50) is over 11.5 µM and the “antiviral activity against HSV-1 (in words)” value is on record as “little effect”. Also, the “TC50 (Antiviral activity against H3N2 virus section)” value in data set [4] came to 80.3 µM.
Turning to `CC1=C2CC[C@@H](C)C[C@]2(OC(=O)c2ccc(Br)cc2)OC1=O` [M33, (6R,7aS)-3,6-Dimethyl-2-Oxo-2,4,5,6,7,7a-Hexahydrobenzofuran-7a-yl 4-Bromobenzoate], in data set [1] (setting [5]), the “TC50 (Antiviral activity against HSV-1 virus section)” value was determined as 80.3 µM. For the same compound, in data set [3], the concentration for half-maximal inhibition (IC50) was determined as 13.7 µM; the “TI (TC50/IC50), H3N2 virus” value turned out to be 5.2; the “antiviral activity against influenza virus H3N2 (in words)” value was “high antiviral activity”. Further, in data set [2], the IC50 was over 11.5 µM and the “antiviral activity against HSV-1 (in words)” value is “little effect”. Besides, in data set [4], the “TC50 (Antiviral activity against H3N2 virus section)” value amounted to 71.0 µM.
With `CC1=C2CC[C@@H](C)C[C@@]2(OC(=O)c2ccccc2Br)OC1=O` [M34, (6R,7aS)-3,6-Dimethyl-2-Oxo-2,4,5,6,7,7a-Hexahydrobenzofuran-7a-yl 2-Bromobenzoate], in data set [1] (setting [5]), the “TC50 (Antiviral activity against HSV-1 virus section)” value came out at 80.3 µM. Moreover, in data set [3], the IC50 was over 39.1 µM and the “antiviral activity against influenza virus H3N2 (in words)” value is “little effect”. For the same compound, in data set [2], the IC50 is 17.1 µM; the “TI (TC50/IC50), HSV-1 virus” value worked out at 4.7; the “antiviral activity against HSV-1 (in words)” value was “obvious antiviral activity”. Besides, in data set [4], the “TC50 (Antiviral activity against H3N2 virus section)” value is 71.0 µM.
Turning to `CC1=C2CC[C@@H](C)C[C@@]2(OC(=O)c2ccc(C(F)(F)F)cc2)OC1=O` [M35, (6R,7aS)-3,6-Dimethyl-2-Oxo-2,4,5,6,7,7a-Hexahydrobenzofuran-7a-yl 4-(Trifluoromethyl) Benzoate], the “TC50 (Antiviral activity against HSV-1 virus section)” value in data set [1] (setting [5]) was found to be 82.8 µM. Moreover, in data set [3], the 50% inhibitory concentration (IC50) was determined as 29.7 µM; the “TI (TC50/IC50), H3N2 virus” value was 2.5; the “antiviral activity against influenza virus H3N2 (in words)” value is reported as “high antiviral activity”. In addition, in data set [2], the IC50 is over 11.5 µM. Moreover, the “TC50 (Antiviral activity against H3N2 virus section)” value in data set [4] was determined as 75.4 µM.
For `NC(=O)c1ncn([C@@H]2O[C@H](CO)[C@@H](O)[C@H]2O)n1` [Ribavirin, reference compound], the IC50 in data set [3] was 1020 µM.
